Data set [1] has as its target T1, 5-hydroxytryptamine receptor 2A (Homo sapiens, UniProt P28223). As to the kind of experiment: Antagonist activity at human 5-HT2AR expressed in HEK293 cells assessed as inhibition of serotonin-induced calcium flux after 30 mins by HTRF method. The format is functional, cell-based.
The test system of a further data set is Cavia porcellus. Briefly: Cardiotoxicity in guinea pig assessed as QT prolongation at 10 mg/kg, ip. The format is toxicity, organism-based. The settings on record: in vivo.
Data set [2] deals with D(3) dopamine receptor (Homo sapiens) (UniProt P35462). Briefly: Antagonist activity at human D3R expressed in CHO-K1 cells assessed as inhibition of dopamine induced cAMP accumulation at 10^-6 M after 30 mins by HTRF method. It is filed as functional, cell-based.
Chain of D(3) dopamine receptor (Homo sapiens) (P35462 whole entry): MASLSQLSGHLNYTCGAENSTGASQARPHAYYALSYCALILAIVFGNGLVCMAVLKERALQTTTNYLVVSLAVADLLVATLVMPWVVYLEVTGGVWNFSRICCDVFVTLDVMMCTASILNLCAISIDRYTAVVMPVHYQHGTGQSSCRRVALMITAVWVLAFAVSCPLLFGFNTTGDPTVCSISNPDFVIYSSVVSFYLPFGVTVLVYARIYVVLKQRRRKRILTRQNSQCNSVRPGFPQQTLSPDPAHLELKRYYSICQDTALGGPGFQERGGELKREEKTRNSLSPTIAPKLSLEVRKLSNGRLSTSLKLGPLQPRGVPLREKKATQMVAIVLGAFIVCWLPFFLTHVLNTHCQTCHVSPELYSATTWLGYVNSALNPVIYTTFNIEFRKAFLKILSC
For data set [3], the target named is T1, 5-hydroxytryptamine receptor 2A. As to the kind of experiment: Antagonist activity at human 5-HT2AR expressed in HEK293 cells assessed as inhibition of serotonin-induced calcium flux at 10^-6 M after 30 mins by HTRF method. It is filed as functional, cell-based.
For data set [4], the target named is T2, 5-hydroxytryptamine receptor 1A (Homo sapiens) (UniProt P08908).
T2 sequence (whole entry): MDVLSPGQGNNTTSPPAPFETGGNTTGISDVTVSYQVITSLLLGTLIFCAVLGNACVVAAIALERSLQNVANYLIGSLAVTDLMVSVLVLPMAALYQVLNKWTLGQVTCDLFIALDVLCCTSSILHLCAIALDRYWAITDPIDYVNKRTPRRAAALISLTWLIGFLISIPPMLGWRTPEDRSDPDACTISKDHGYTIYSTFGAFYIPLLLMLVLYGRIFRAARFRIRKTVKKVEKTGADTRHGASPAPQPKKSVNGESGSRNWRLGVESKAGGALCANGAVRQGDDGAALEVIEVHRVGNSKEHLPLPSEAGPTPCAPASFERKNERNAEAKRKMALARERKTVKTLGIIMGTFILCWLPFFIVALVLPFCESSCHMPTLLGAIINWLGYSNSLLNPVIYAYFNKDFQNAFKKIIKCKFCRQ
As to the kind of experiment: Antagonist activity at human 5-HT1AR expressed in mouse BA/F3 cells assessed as inhibition of serotonin-induced calcium flux by fluorimetric method. It is filed as functional, cell-based.

Data set [5] can be described thus: Toxicity in ip dosed Sprague-Dawley rat assessed as induction of catalepsy measured every 30 mins up to 240 mins by bar test. It is filed as organism-based. To be noted: Sprague-Dawley, in vivo.
Data set [6] deals with T3, 5-hydroxytryptamine receptor 7 (Homo sapiens, UniProt P34969). As to the kind of experiment: Antagonist activity at human 5-HT7R expressed in CHO-K1 cells assessed as inhibition of serotonin-induced cAMP accumulation after 30 mins by chemiluminescence-based assay. The format is functional, cell-based.
T3 sequence (P34969 whole entry): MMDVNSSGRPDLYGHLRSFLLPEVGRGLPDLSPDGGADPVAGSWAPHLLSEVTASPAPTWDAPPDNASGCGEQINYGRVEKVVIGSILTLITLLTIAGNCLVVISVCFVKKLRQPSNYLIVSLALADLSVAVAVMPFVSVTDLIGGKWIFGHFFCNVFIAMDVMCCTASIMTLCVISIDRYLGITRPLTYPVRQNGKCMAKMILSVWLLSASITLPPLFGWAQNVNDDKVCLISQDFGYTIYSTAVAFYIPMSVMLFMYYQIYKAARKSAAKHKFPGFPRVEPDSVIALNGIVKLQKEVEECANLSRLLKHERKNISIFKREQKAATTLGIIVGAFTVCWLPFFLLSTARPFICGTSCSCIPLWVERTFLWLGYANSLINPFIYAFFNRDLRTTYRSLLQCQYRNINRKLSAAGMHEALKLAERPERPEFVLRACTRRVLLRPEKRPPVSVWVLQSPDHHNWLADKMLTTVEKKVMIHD
For data set [7], the target named is T4, Sodium-dependent serotonin transporter (Homo sapiens, UniProt P31645). As to the kind of experiment: Displacement of [3H]imipramine from recombinant human SERT expressed in CHO cells after 60 mins by scintillation counting method. It is filed as cell-based.
Target sequence in this assay (P31645 whole entry): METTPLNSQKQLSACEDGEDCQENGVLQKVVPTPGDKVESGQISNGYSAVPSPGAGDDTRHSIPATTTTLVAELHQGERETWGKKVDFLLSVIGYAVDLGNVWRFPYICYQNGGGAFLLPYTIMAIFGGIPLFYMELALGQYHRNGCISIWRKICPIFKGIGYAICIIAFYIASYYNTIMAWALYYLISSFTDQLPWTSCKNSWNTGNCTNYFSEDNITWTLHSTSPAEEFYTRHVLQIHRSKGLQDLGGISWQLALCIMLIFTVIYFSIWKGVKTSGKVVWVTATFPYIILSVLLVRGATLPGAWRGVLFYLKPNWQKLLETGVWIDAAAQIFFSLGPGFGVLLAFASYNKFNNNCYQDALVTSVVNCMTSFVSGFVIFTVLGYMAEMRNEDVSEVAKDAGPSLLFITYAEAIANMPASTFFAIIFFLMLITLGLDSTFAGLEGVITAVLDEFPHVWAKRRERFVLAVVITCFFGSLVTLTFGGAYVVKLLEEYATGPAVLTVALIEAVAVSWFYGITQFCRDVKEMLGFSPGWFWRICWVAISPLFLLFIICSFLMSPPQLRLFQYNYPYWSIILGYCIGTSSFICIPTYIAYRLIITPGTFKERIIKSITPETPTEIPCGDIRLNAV
The target in data set [8] is Muscarinic acetylcholine receptor M1 (Homo sapiens) (UniProt P11229). Briefly: Displacement of [3H]-pirenzepine from human muscarinic acetylcholine M1 receptor expressed in CHO cells at 10^-6 M after 60 mins by scintillation counting method relative to control. It is filed as cell-based.
Chain of Muscarinic acetylcholine receptor M1 (Homo sapiens) (P11229 whole entry): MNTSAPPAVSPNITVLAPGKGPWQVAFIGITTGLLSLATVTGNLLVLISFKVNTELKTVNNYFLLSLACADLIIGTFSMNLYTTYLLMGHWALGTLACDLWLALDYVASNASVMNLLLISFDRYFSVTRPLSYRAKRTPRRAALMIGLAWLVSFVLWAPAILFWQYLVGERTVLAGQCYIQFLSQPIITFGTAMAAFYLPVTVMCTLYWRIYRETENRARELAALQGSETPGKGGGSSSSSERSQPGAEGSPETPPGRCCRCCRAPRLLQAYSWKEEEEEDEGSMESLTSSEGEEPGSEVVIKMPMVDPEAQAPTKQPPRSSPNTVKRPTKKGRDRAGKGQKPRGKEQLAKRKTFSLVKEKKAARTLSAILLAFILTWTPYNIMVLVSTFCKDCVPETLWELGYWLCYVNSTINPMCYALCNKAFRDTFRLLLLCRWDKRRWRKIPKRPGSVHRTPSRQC
Data set [9] addresses 5-hydroxytryptamine receptor 2B (Homo sapiens) (UniProt P41595). As to the kind of experiment: Displacement of [3H]mesulergine from human 5-HT2B receptor expressed in CHO cells at 10^-6 M after 60 mins by scintillation counting analysis relative to control. The format is cell-based.
Data set [10] addresses T5, 5-hydroxytryptamine receptor 1A (Homo sapiens, UniProt P08908).
T5 sequence (P08908 whole entry): T2 sequence (whole entry)
As to the kind of experiment: Partial agonist activity at human 5-HT1AR expressed in CHO-K1 cells assessed as increase in cAMP accumulation by chemiluminescence-based assay. It is filed as functional, cell-based.

A short description of data set [11]: Tmax in Wistar rat plasma at 9 mg/kg per os administered as a single dose by LC-MS/MS analysis. The format is ADME, organism-based. To be noted: po.
For data set [12], the target named is 5-hydroxytryptamine receptor 1B (Rattus norvegicus) (UniProt P28564). Briefly: Displacement of [125I]-CYP from 5-HT1BR in rat cerebral cortex at 10^-6 M after 120 mins by scintillation counting analysis relative to control.
Chain of 5-hydroxytryptamine receptor 1B (Rattus norvegicus) (P28564 whole entry): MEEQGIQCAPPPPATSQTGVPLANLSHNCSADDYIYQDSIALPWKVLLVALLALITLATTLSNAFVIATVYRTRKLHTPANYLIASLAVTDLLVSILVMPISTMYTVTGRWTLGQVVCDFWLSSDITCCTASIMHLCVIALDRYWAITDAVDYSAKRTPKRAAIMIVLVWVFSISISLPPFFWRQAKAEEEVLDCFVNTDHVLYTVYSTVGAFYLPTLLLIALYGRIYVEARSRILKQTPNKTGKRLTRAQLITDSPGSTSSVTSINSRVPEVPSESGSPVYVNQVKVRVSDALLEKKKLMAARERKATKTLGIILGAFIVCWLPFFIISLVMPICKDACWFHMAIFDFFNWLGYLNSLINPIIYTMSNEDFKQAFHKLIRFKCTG
In data set [13] the target is 5-hydroxytryptamine receptor 3A (Homo sapiens) (UniProt P46098). As to the kind of experiment: Displacement of [3H]BRL 43694 from human 5-HT3 receptor expressed in CHO cells at 10^-6 M after 120 mins by scintillation counting analysis relative to control. It is filed as cell-based.
Data set [14] concerns the target T1, 5-hydroxytryptamine receptor 2A. Briefly: Displacement of [3H]ketanserin from human recombinant 5-HT2A receptor after 60 mins by scintillation counting analysis.
The target of data set [15] is T2, 5-hydroxytryptamine receptor 1A (Homo sapiens). Briefly: Partial agonist activity at human 5-HT1AR expressed in CHO-K1 cells assessed as increase in calcium flux by fluorimetric method. The format is functional, cell-based.
Data set [16] relates to Rattus norvegicus. Briefly: Reversal of ketamine-induced cognitive flexibility in ip dosed Sprague-Dawley rat administered 30 mins prior to ketamine administration by attentional set-shifting test. To be noted: read-out: MED. It is filed as functional.
Data set [17] can be described thus: Cmax in Wistar rat plasma at 9 mg/kg per os administered as a single dose by LC-MS/MS analysis. Also noted: dose 9 mg/kg. To be noted: po. The format is ADME, organism-based.
The target in data set [18] is Histamine H1 receptor (Homo sapiens) (UniProt P35367). As to the kind of experiment: Displacement of [3H]-pyrilamine from human histamine H1 receptor expressed in HEK293 cells at 10^-6 M after 60 mins by scintillation counting method relative to control. The format is cell-based.
Chain of Histamine H1 receptor (Homo sapiens) (P35367 whole entry): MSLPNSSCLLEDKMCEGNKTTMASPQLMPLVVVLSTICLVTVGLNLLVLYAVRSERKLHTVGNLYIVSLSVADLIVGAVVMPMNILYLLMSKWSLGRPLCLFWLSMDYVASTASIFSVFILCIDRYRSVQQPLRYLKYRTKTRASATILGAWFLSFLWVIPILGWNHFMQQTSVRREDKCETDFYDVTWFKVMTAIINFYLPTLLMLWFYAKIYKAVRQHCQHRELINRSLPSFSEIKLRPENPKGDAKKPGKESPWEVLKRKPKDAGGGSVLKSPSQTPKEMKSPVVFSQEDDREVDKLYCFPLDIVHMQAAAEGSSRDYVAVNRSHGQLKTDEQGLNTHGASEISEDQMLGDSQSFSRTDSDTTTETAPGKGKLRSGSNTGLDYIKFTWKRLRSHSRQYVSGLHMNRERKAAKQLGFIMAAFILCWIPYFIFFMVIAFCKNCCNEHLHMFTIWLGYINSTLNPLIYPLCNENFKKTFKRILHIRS
Data set [19] concerns the target T4, Sodium-dependent serotonin transporter. As to the kind of experiment: Displacement of [3H]-imipramine from human SERT expressed in CHO cells at 10^-6 M after 60 mins by scintillation counting method relative to control. The format is cell-based.
Target sequence in this assay (P31645 whole entry, looked up): as the sequence (P31645 whole entry) above
Data set [20] has as its target T3, 5-hydroxytryptamine receptor 7. As to the kind of experiment: Displacement of [3H]LSD from human recombinant 5-HT7 receptor at 10^-6 M after 120 mins by scintillation counting analysis relative to control.
Data set [21] deals with D(3) dopamine receptor (Homo sapiens) (UniProt P35462). As to the kind of experiment: Antagonist activity at human D3R expressed in CHO-K1 cells assessed as inhibition of […] cAMP accumulation by chemiluminescence-based assay. It is filed as functional, cell-based.
Data set [22] concerns the target T2, 5-hydroxytryptamine receptor 1A (Homo sapiens). As to the kind of experiment: Antagonist activity at human 5-HT1AR expressed in CHO-K1 cells assessed as inhibition of serotonin-induced cAMP accumulation by chemiluminescence-based assay. It is filed as functional, cell-based.
In data set [23] the target is 5-hydroxytryptamine receptor 1D (Rattus norvegicus) (UniProt P28565). As to the kind of experiment: Displacement of [3H]-serotonin from rat 5-HT1DR expressed in CHO cells at 10^-6 M after 60 mins by scintillation counting analysis relative to control. It is filed as cell-based.
Chain of 5-hydroxytryptamine receptor 1D (Rattus norvegicus) (P28565 whole entry): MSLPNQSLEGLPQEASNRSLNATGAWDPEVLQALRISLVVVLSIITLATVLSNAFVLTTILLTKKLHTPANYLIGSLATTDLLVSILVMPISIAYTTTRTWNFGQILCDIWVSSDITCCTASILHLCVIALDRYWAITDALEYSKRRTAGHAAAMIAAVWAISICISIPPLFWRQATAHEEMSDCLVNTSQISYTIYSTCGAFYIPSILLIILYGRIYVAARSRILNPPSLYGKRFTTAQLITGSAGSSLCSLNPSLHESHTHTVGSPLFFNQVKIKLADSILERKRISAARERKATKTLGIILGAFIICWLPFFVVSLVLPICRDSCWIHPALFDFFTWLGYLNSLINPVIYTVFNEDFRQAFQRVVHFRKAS
In data set [24] the target is T1, 5-hydroxytryptamine receptor 2A. Briefly: Antagonist activity at human 5-HT2AR expressed in HEK293 cells assessed as inhibition of serotonin-induced IP1 accumulation at 10^-6 M by chemiluminescence-based assay. The format is functional, cell-based.
In data set [25] the test system is Rattus norvegicus. As to the kind of experiment: Toxicity in Wistar rat assessed as increase in prolactin level at 1 to 3 mg/kg, po after 60 mins by ELISA. It is filed as organism-based. The settings on record: in vivo, 1 h.
Data set [26] deals with D(3) dopamine receptor (Homo sapiens) (UniProt P35462). As to the kind of experiment: Displacement of [3H]-methyl-spiperone from human dopamine D3 receptor expressed in CHO cells at 10^-6 M after 60 mins by scintillation counting method relative to control. The format is cell-based.
Data set [27] is described as follows: Tmax in Wistar rat brain at 9 mg/kg per os administered as a single dose by LC-MS/MS analysis. It is filed as ADME, organism-based. The settings on record: po.
Data set [28] relates to Rattus norvegicus. Briefly: Toxicity in Sprague-Dawley rat assessed as induction of catalepsy at 30 mg/kg, ip measured every 30 mins up to 240 mins by bar test. To be noted: in vivo. It is filed as organism-based.

The results in this text go back to ChEMBL document CHEMBL4229332, “Novel multi-target azinesulfonamides of cyclic amine derivatives as potential antipsychotics with pro-social and pro-cognitive effects” (Eur J Med Chem, 2018).

T1 sequence (P28223 whole entry): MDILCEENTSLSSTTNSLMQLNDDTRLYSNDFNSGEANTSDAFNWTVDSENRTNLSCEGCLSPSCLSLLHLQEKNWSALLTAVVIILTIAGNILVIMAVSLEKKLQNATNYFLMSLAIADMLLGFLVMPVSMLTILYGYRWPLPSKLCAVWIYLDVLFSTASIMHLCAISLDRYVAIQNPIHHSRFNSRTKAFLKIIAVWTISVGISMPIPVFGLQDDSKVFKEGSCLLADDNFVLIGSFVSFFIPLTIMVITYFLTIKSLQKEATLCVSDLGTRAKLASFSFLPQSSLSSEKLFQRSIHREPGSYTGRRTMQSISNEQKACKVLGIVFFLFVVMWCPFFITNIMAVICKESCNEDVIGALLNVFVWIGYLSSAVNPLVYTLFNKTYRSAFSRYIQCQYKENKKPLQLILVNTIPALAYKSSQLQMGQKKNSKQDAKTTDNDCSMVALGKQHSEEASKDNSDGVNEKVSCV
Chain of 5-hydroxytryptamine receptor 2B (Homo sapiens) (P41595 whole entry): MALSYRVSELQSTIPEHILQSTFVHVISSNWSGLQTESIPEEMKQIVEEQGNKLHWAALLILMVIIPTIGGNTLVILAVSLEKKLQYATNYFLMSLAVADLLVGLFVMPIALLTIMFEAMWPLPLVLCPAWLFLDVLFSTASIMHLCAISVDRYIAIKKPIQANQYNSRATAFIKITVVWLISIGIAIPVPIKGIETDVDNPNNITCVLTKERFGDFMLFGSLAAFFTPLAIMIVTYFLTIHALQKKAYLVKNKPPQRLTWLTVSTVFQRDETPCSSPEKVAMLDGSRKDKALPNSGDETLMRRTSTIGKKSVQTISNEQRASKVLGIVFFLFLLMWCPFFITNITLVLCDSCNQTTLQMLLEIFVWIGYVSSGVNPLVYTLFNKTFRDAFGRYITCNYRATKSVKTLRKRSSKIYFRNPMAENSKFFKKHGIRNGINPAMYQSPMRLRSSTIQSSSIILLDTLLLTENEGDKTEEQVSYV

For `O=S(=O)(c1cncc2ccccc12)N1CCC[C@H]1CCN1CCN(c2nsc3ccccc23)CC1`, the Kb in data set [1] turned out to be 2 nM; in [4], 11 nM; in data set [6], 2.5 nM. The Activity entry with Cavia porcellus is “Non-Toxic”. Further, the inhibition in data set [2] and in [3] was 100% throughout. Besides, the MTD in [5] is 30 mg/kg.
In the case of `O=S(=O)(c1cncc2ccccc12)N1CCC[C@H]1CCN1CCN(c2cccc3sccc23)CC1`, the inhibitory constant (Ki) in data set [7] came to 76 nM; in data set [14] it was 9 nM. Further, the inhibition in [8] was 6%; in data set [9] it was 100%; in data set [12], 84%; in data set [13] it was 15%; in data set [18], 96%; in [19], 84%. The inhibition in data set [20] amounted to 100%; in data set [23] it was 95%; in data set [24], 100%; in [26], 98%. In addition, in [10], the half-maximal effective concentration (EC50) turned out to be 28.3 nM. Moreover, the Tmax is 10 min in data set [11] and 1 h in data set [27]. For the same molecule, the values for the Kb in data set [15], in [21] and in data set [22] were 28.3 nM, 92 nM and 35.6 nM, respectively. In addition, the minimal effective dose with Rattus norvegicus [16] came out at 1 mg/kg. In data set [17], this molecule displayed a maximum concentration (Cmax) of 54 nM. Further, the Activity entry with Rattus norvegicus [25] and in the data set with Rattus norvegicus [28] was “Non-Toxic” each time.
